Earlier results, collected in US20160175482A1, “COMPOSITION AND DELIVERY SYSTEM” (LOCATE THERAPEUTICS LIMITED, priority 2013, published 2016).

log P: 6.85
Structure (SMILES): Cc1ccc(C)c(N=Nc2cc(C)c(N=Nc3c(O)ccc4ccccc34)cc2C)c1 [Oil Red-O]
